Laboratory results as given in US10435396B2, “2-substituted indazoles, methods for producing same, pharmaceutical preparations that contain same, and use of same to produce drugs” (Bayer Pharma Aktiengesellschaft, priority 2016, dated 2019).

System: human PBMCs
Experiment: In vitro LPS-induced cytokine production in human PBMCs
Assay type: cell-based
Settings: 0.1 μg/ml LPS, 24 hours
Procedure: In Vitro LPS (Lipopolysaccharide)-Induced Cytokine Production in Human PBMCs (Peripheral Blood Mononuclear Cells)
The effect of the inventive compounds of the general formula (I) on induced cytokine production in human PBMCs was examined. Cytokine production was induced here by LPS, a TLR4 ligand, which leads to activation of the IRAK4-mediated signal path.
The human PBMCs were obtained from anti-coagulated human whole blood. To this end, 15 ml of Ficoll-Paque (Biochrom, Cat. No. L6115) were initially charged in Leucosep tubes and 20 ml of human blood were added. After centrifugation of the blood at 800 g for 15 min at room temperature, the plasma including the platelets was removed and discarded. The PBMCs were transferred into centrifugation tubes and made up with PBS (phosphate-buffered saline) (Gibco, Cat. No. 14190). The cell suspension was centrifuged at room temperature at 250 g for 10 min and the supernatant was discarded. The PBMCs were resuspended in complete medium (RPMI 1640, without L-glutamine (PAA, Cat. No. E15-039), 10% FCS; 50 U/ml penicillin, 50 μg/ml streptomycin (PAA, Cat. No. P11-010) and 1% L-glutamine (Sigma, Cat. No. G7513)).
The assay was also carried out in complete medium. The PBMCs were sown in 96-well plates at a cell density of 2.5×10^5 cells/well. The compounds according to the invention were subjected to serial dilution in a constant volume of 100% DMSO and used in the assay at 8 different concentrations in the range from 10 μM to 3 nM such that the final DMSO concentration was 0.4% DMSO. Prior to the actual stimulation, the cells were then pre-incubated therewith for 30 min. […] Cell viability was determined using the CellTiter-Glo luminescent assay (Promega, Cat. No. G7571 (G755/G756A)) in accordance with the manufacturer's instructions. The amount of secreted TNF-α in the cell culture supernatant was determined using the Human ProInflammatory 9-Plex Tissue Culture Kit (MSD, Cat. No. K15007B) in accordance with the instructions of the manufacturer. […]

SMILES: CC(C)(O)c1cc2nn(C3CCNCC3)cc2cc1NC(=O)c1cccc(C(F)(F)F)n1 [Example 46, N-[6-(2-Hydroxypropan-2-yl)-2-(piperidin-4-yl)-2H-indazol-5-yl]-6-(trifluoromethyl)pyridine-2-carboxamide]
- activity (secreted TNF-α, LPS-induced cytokine production in human PBMCs): ≤ 1 µM

SMILES: CC(C)(O)c1cc2nn(C3CCS(=O)(=O)CC3)cc2cc1NC(=O)c1cccc(C(F)(F)F)n1 [Example 44, N-[2-(1,1-Dioxidotetrahydro-2H-thiopyran-4-yl)-6-(2-hydroxypropan-2-yl)-2H-indazol-5-yl]-6-(trifluoromethyl)pyridine-2-carboxamide]
- activity (secreted TNF-α, LPS-induced cytokine production in human PBMCs): ≤ 1 µM
